Data: PMC5882690, “Mechanical characteristics of beta sheet-forming peptide hydrogels are dependent on peptide sequence, concentration and buffer composition” (Royal Society Open Science, 2018)
Where a SMILES comes first, the peptide text is derived from it. [ ]: non-standard residue; d: D form. Orn = NCCC[C@H](N)C(=O)O

Legend:
[1] = cited from earlier work
Source text: The topographical structure of SAP hydrogels is important for the three-dimensional arrangement of cells within scaffolds. Zhang et al. state that the fibres of SAP hydrogels resemble the nanometre scale of natural polymer networks and thus allow three-dimensional cell growth. […] (figure 1). […] Moreover, they observed the formation fibre entanglements with diameters of 30 nm. The phenomenon of fibril clustering was also reported by Zhang et al. for the peptides KFE8 and KLD12, characterized by a typical single fibre width of 7 nm and thicker diameters for the bundles of fibres.

[2] = target: T1, human neutrophil elastase (Homo sapiens, UniProt P08246); assay: SAP hydrogel degradation by human neutrophil elastase; type: in vitro ADME; conditions: human neutrophil elastase 100 µg ml^-1 (86 units ml^-1) in PBS, 37°C, 5% CO2, 20 mg ml^-1 P11-4, 15 mg ml^-1 others, Qubit Protein Assay, mean ± SD, n = 3
T1 construct: purchased Innovative Research, USA
T1 sequence (P08246 30-267): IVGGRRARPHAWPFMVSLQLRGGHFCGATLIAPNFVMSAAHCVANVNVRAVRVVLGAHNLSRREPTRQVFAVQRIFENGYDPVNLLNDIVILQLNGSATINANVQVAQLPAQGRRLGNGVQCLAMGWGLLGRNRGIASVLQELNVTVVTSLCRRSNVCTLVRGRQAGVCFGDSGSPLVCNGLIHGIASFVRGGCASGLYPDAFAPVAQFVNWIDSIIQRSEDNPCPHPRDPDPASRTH
Description: SAP hydrogel dissolution and degradation properties of the peptides in the presence and absence of neutrophilic elastase and microorganisms were measured by determining the peptide content of the supernatant. Therefore, SAPs were assembled in PBS at concentrations of 20 mg ml^−1 for P11-4 and 15 mg ml^−1 for P11-8, P11-13/14 and P11-28/29. The assay was performed in a 96-well plate with gel volumes of 100 µl well^−1. 86 units ml^−1 elastase (Innovative Research, USA) (100 µg ml^−1) were added to the assembled peptides in PBS solution. After 24 h incubation at 37°C and 5% CO2, 10 µl of the supernatant was sterilely removed after 24 and 168 h and measured indirectly by monomeric peptide concentration in the supernatant using the Qubit® Protein Assay (Q33211; Thermo Fisher; fluorescence at 485/590 nm) and transferred back for the remainder of the experiment allowing peptide hydrogel degradation measurement without disturbing the hydrogel to buffer fluid balance. The measurements are based on the fact that degraded peptides cause disassembly of the fibrils, as assembly rules are no longer given, resulting in an increase in monomeric SAP in solution. SAP concentrations were calculated based on respective peptide standard curves. For data analysis, SAP concentrations measured in the supernatant were calculated as a percentage of the specific starting concentrations of each peptide system. Statistical analysis was done using a two-way ANOVA followed by Sidak's multiple comparison test.

**Q.** With KLD12 [reference compound] as the compound, how does the “typical single fibre width” value ([1]; literature) read?
**A.** 7 nm

**Q.** With RADA16 [reference compound] as the compound, how does the fibre diameter ([1]; literature value) read?
**A.** approximately 10 nm

**Q.** Which “relative peptide amount in supernatant (% of peptide starting concentration)” value ([2]; 1 d) does the source give for CC(=O)N[C@@H](CCC(N)=O)C(=O)N[C@@H](CCC(N)=O)C(=O)N[C@@H](CCCNC(=N)N)C(=O)N[C@@H](Cc1ccccc1)C(=O)N[C@@H](CCCN)C(=O)N[C@@H](Cc1c[nH]c2ccccc12)C(=O)N[C@@H](CCCN)C(=O)N[C@@H](Cc1ccccc1)C(=O)N[C@@H](CCC(=O)O)C(=O)N[C@@H](CCC(N)=O)C(=O)N[C@@H](CCC(N)=O)C(N)=O [P11-8, CH3CO-QQRFOWOFEQQ-NH2] (Ac-QQRF[Orn]W[Orn]FEQQ-NH2) here?
**A.** 10.4± 3.9%

**Q.** And the “relative peptide amount in supernatant (% of peptide starting concentration)” value ([2]; 7 d)?
**A.** 10.4± 1.3%
